Data as given in patent US9062051B2, “Compounds and pharmaceutical compositions thereof for the treatment of proliferative disorders” (GALAPAGOS NV, priority 2014, dated 2015).

What was measured:
Format in all cases: biochemical
Recombinant EphA7 = target: T1, Recombinant EphA7 (Homo sapiens, UniProt Q15375); test: EphA7 assay (33P incorporation into poly GT, filter plate); details: EphA7 potency; 0.15 μM ATP; read-out: IC50
T1 construct: purchased Carna 08-126
Protocol: (§1) The principle of the assay consists of the measurement of incorporated ^33P into the substrate poly GT when phosphorylated by the enzyme EphA7 using [^33P]-γ-ATP and ATP. Unincorporated ^33P is removed by loading the samples on a filter plate (using a harvester, Perkin Elmer) and 6 subsequent washing steps. ^33P incorporated in polyGT is measured on a Topcount after addition of microscint to the filter plates (Perkin Elmer).
Recombinant EphA7 (Carna Cat#08-126, 2 ng per well) was incubated with 0.1 mg/mL Poly(Glu,Tyr)sodium salt (4:1), MW 20 000-50 000 (Sigma catalog number P0275) in kinase reaction buffer (10 mM MOPS pH 7.2, 5 mM DTT, 0.01% Triton-X100, 5 mM MnCl2, 0.5 mM Na3VO4, 5 mM beta-glycerolphosphate), 0.15 μM non-radioactive ATP, 0.125 μCi/25 μl ^33P-gamma-ATP (Perkin Elmer, catalog number NEG602K) final concentrations with or without 5 μL containing test compound or vehicle (DMSO, 1% final concentration), in a total volume of 25 μL, in a polypropylene 96-well plate (Greiner, V-bottom). After 90 min at 30° C., reactions were stopped by adding of 25 μL/well of 150 mM phosphoric acid. All of the terminated kinase reaction was transferred to prewashed (75 mM phosphoric acid) 96 well filter plates (Perkin Elmer catalog number 6005177) using a cell harvester (Perkin Elmer). Plates were washed 6 times with 300 μL per well of a 75 mM phosphoric acid solution and the bottom of the plates was sealed. 40 μL/well of Microscint-20 was added, the top of the plates was sealed and readout was performed using the Topcount (Perkin Elmer). The ability of a test compound to inhibit the kinase activity was determined using counts per minutes (cpm) measured by the Topcount as:
(§2) Cpm (cpd): cpm determined for sample with test compound present
(§3) Cpm (control): cpm determined for sample with positive control inhibitor (10 μM staurosporine)
(§4) Cpm (vehicle): cpm determined in the presence of vehicle (1% DMSO)
(§5) Dose dilution series were prepared for the compounds enabling the testing of dose-response effects in the EphA7 assay and the calculation of the IC50 for each compound. Each compound was routinely tested at concentration of 20 μM followed by a 1/5 serial dilution, 10 points in a final concentration of 1% DMSO. When potency of compound series increased, more dilutions may be prepared and/or the top concentration may be lowered (e.g. 5 μM, 1 μM).

Recombinant EphB2 = target: T2, Recombinant EphB2 (Homo sapiens, UniProt P29323); test: EphB2 assay (33P incorporation into poly GT, filter plate); details: read-out: EphB2 potency IC50
T2 construct: purchased Carna 08-129
T2 sequence (P29323 19-986 isoform P29323-2 limits assumed): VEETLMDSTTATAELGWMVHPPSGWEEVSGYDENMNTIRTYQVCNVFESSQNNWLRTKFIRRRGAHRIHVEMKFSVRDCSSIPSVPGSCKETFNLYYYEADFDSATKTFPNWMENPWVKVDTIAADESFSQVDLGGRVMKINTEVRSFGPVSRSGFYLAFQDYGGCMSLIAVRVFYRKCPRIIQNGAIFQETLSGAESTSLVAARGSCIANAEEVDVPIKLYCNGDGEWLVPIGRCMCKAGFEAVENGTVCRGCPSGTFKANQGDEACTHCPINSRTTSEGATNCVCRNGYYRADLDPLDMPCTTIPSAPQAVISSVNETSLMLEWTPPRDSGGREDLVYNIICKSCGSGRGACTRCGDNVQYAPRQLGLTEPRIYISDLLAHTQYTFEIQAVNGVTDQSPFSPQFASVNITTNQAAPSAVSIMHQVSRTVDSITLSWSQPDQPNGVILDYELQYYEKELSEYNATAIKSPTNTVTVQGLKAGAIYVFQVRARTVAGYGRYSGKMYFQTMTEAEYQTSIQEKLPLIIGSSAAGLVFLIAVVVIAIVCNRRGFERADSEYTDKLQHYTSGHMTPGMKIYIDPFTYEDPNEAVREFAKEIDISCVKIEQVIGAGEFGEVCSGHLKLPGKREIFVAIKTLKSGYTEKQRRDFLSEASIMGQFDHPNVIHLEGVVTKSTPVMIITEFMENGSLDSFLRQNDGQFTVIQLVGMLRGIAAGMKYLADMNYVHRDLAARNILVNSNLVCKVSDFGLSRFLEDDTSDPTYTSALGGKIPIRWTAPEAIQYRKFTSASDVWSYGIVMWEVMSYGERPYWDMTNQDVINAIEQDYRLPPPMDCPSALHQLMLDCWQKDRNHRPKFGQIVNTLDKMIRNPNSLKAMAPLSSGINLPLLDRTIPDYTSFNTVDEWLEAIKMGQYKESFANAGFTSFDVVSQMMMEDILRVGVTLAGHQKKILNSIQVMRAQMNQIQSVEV
Protocol: as §1, with “EphB2” for “EphA7”
Recombinant EphB2 (Carna Cat#08-129, 0.6 ng per well) was incubated with 0.05 mg/mL Poly(Glu,Tyr)sodium salt (4:1), MW 20 000-50 000 (Sigma catalog number P0275) in kinase reaction buffer (10 mM MOPS pH 7.2, 5 mM DTT, 0.01% Triton-X100, 5 mM MnCl2, 0.5 mM Na3VO4, 5 mM beta-glycerolphosphate), 0.5 μM non-radioactive ATP, 0.25 μCi/25 μl ^33P-gamma-ATP (Perkin Elmer, catalog number NEG602K) final concentrations with or without 5 μL containing test compound or vehicle (DMSO, 1% final concentration), in a total volume of 25 μL, in a polypropylene 96-well plate (Greiner, V-bottom). After 45 min at 30° C., reactions were stopped by adding of 25 μL/well of 150 mM phosphoric acid. The experiment was then conducted as described for EphA7. The ability of a test compound to inhibit the kinase activity was determined using counts per minutes (cpm) measured by the Topcount as:
as §2, §3, §4
as §5, with “EphB2” for “EphA7”

EphA2 = target: T3, EphA2 (UniProt Ref: P29317) (Homo sapiens, UniProt P29317); test: EphA2 assay (Reaction Biology HotSpot radioactive kinase assay); details: ATP 10 μM; read-out: EphA2 potency IC50
T3 construct: purchased Reaction Biology
Protocol: Inhibition of EphA2 (UniProt Ref: P29317) by a test compound is determined by a commercially available Reaction Biology proprietary nanoliter radioactive HotSpot^SM assay (Reaction Biology, One great valley parkway, Suite 2, Malvern Pa., 19355, USA). The principle of the assay consists of the measurement of incorporated ^33P into poly[Glu:Tyr] (4:1) (0.2 mg/mL) when the substrate is phosphorylated by the enzyme using [^33P]-γ-ATP and ATP (10 μM).
To determine the IC50, a serial dilution of compound is tested starting from 10, or 3 μM (highest dilution) with a 1/3 dilution.

T1 sequence (Q15375 579-998 limits assumed): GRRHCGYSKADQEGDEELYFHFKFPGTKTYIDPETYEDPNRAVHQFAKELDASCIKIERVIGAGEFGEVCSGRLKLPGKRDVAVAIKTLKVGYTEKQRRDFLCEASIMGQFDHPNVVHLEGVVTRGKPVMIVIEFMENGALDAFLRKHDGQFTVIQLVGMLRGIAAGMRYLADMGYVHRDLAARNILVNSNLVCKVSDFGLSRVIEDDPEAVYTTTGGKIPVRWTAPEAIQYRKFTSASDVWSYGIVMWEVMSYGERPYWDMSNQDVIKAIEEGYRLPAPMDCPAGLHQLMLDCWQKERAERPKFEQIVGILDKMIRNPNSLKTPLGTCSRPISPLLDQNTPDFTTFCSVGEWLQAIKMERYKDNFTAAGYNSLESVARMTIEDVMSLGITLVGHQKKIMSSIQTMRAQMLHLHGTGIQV
T3 sequence (P29317 24-976): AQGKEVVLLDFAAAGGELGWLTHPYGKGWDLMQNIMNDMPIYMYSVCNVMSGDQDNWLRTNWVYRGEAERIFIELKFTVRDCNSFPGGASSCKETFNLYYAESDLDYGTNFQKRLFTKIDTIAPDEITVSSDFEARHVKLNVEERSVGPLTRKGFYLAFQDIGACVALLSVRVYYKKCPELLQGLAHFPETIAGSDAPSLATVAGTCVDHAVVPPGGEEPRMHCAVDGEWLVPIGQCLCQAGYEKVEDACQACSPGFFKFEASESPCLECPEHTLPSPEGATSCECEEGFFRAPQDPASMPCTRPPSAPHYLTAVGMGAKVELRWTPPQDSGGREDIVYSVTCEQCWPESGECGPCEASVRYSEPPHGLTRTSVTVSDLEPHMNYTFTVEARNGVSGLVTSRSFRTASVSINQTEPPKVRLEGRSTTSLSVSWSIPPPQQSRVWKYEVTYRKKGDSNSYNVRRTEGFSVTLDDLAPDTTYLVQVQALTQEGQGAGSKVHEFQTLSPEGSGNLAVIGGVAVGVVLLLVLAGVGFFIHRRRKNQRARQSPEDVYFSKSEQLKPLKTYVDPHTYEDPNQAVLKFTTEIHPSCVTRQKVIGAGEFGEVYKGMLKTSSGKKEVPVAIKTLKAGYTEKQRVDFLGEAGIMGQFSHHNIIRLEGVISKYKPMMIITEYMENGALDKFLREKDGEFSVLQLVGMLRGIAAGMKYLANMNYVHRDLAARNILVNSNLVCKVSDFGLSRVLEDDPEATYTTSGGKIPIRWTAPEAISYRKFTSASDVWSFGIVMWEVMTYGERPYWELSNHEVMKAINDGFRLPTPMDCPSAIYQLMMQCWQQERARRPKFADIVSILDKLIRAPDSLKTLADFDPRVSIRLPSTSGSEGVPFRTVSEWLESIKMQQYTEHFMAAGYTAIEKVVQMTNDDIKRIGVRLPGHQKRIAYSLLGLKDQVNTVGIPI

IC50 (Recombinant EphA7) [nM]	IC50 (Recombinant EphB2) [nM]	IC50 (EphA2) [nM]	SMILES
> 1000	0.01 to 25	25 to 50	Cc1cc(OCCN2CCOCC2)cc(C(=O)Nc2ccc(C)c(-c3ccc4c(C(C)O)n[nH]c4n3)c2)c1 (stereo not shown) [Compound 28, N-{3-[3-(1-Hydroxy-ethyl)-1H-pyrazolo[3,4-b]pyridin-6-yl]-4-methyl-phenyl}-3-methyl-5-(2-morpholin-4-yl-ethoxy)-benzamide]
250 to 500	0.01 to 25	0.01 to 25	CCc1n[nH]c2nc(-c3cc(NC(=O)c4cc(C)cc(OCCN)c4)ccc3C)ccc12 [Compound 30, 3-(2-Amino-ethoxy)-N-[3-(3-ethyl-1H-pyrazolo[3,4-b]pyridin-6-yl)-4-methyl-phenyl]-5-methyl-benzamide]
0.01 to 250	0.01 to 25	0.01 to 25	CCc1n[nH]c2nc(-c3cc(NC(=O)c4cc(C)cc(OCCCN)c4)ccc3C)ccc12 [Compound 31, 3-(3-Amino-propoxy)-N-[3-(3-ethyl-1H-pyrazolo[3,4-b]pyridin-6-yl)-4-methyl-phenyl]-5-methyl-benzamide]
> 1000	0.01 to 25		COc1cc(OC)cc(C(=O)Nc2cnc(C)c(-c3ccc4c(C5CC5)n[nH]c4n3)c2)c1 [Compound 34, N-(5-(3-cyclopropyl-1H-pyrazolo[3,4-b]pyridin-6-yl)-6-methylpyridin-3-yl)-3,5-dimethoxybenzamide]
500 to 1000	> 100	0.01 to 25	CCc1n[nH]c2nc(-c3cc(NC(=O)c4cc(OCCN5CCOCC5)cc(C(F)(F)F)c4)ccc3C)ccc12 [Compound 36, N-[3-(3-Ethyl-1H-pyrazolo[3,4-b]pyridin-6-yl)-4-methyl-phenyl]-3-(2-morpholin-4-yl-ethoxy)-5-trifluoromethyl-benzamide]
250 to 500	> 100	0.01 to 25	CCc1n[nH]c2nc(-c3cc(NC(=O)c4cc(OC)cc(C5CC5)c4)cnc3C)ccc12 [Compound 38, 3-Cyclopropyl-N-[5-(3-ethyl-1H-pyrazolo[3,4-b]pyridin-6-yl)-6-methyl-pyridin-3-yl]-5-methoxy-benzamide]
> 1000	> 100		CCc1n[nH]c2nc(-c3cc(NC(=O)c4cc(OC)cc(OCCN5CCOCC5)c4)cnc3C)ccc12 [Compound 40, N-[5-(3-Ethyl-1H-pyrazolo[3,4-b]pyridin-6-yl)-6-methyl-pyridin-3-yl]-3-methoxy-5-(2-morpholin-4-yl-ethoxy)-benzamide]
> 1000	> 100	50 to 100	CCc1n[nH]c2nc(-c3cc(NC(=O)c4cccc(C(F)(F)F)c4)cnc3C)ccc12 [Compound 42, N-[5-(3-Ethyl-1H-pyrazolo[3,4-b]pyridin-6-yl)-6-methyl-pyridin-3-yl]-3-trifluoromethyl-benzamide]
250 to 500	0.01 to 25	0.01 to 25	CCc1n[nH]c2nc(-c3cc(NC(=O)c4cc(OC)cc(OCCCN)c4)ccc3C)ccc12 [Compound 45, 3-(3-Amino-propoxy)-N-[3-(3-ethyl-1H-pyrazolo[3,4-b]pyridin-6-yl)-4-methyl-phenyl]-5-methoxy-benzamide]
500 to 1000	25 to 50	0.01 to 25	CCc1n[nH]c2nc(-c3cc(NC(=O)c4cc(OC)cc(OCCCN)c4)cnc3C)ccc12 [Compound 46, 3-(3-Amino-propoxy)-N-[5-(3-ethyl-1H-pyrazolo[3,4-b]pyridin-6-yl)-6-methyl-pyridin-3-yl]-5-methoxy-benzamide]
> 1000	0.01 to 25	0.01 to 25	Cc1ccc(NC(=O)c2cccc(C(F)(F)F)c2)cc1-c1ccc2c([C@@H](C)O)n[nH]c2n1 [Compound 56, N-{3-[3-((R)-1-Hydroxy-ethyl)-1H-pyrazolo[3,4-b]pyridin-6-yl]-4-methyl-phenyl}-3-trifluoromethyl-benzamide]
